One series can be described thus: Solubility. Type of series: physicochemical. As to conditions: relative to the ortho-chloro analogue.
Series [1] concerns T-cells allostimulated by dendritic cells (DC). Description: Allogeneic mixed leukocyte reaction (alloMLR), T-cell proliferation. The class given is cell-based, human. As to the method:
Bulk donor T-cells were allostimulated with allogeneic DCs (DC:T-cell ratio of 1:30) as previously described (OneBlood, Tampa, Fla.)(15, 16, 20). […] As indicated, alloMLRs consisting of Treg depleted, naïve CD4^+ T-cells (Miltenyi Biotec Inc, San Diego, Calif.) were treated with a combination of ARL67156 (CD39 inhibitor, 125 μM, Sigma), AJI, or DMSO on day 0 to study the role of CD39 and ATP in this system. T-cell proliferation was measured on day 5 by a colorimetric assay (CellTiter 96 Aqueous One Solution Cell Proliferation Assay [MTS]; or CellTiter Blue, Promega, Madison, Wis.). Absorbance/optical density (OD) was analyzed at 490 nm or 590 nm, respectively. Proliferation (%)=(OD treated alloMLR−OD T-cells alone)/(OD DMSO alloMLR−OD T-cells alone)×100.

The test system of series [2] is H3 Ser10 (target of Aurora). As to the kind of experiment: H3 Ser10 phosphorylation in DC-allostimulated T-cells (flow cytometry). The class given is cell-based, human. The conditions noted are these: 5-day allogeneic DC stimulation; AJI 750 nM, alisertib 1.75 μM, TG101348 350 nM. As to the method:
After 5 days, T cells were then harvested and directly fixed (Cytofix, BD Biosciences) for 10 min at 37° C. After washing with phosphate-buffered saline, the T cells were permeabilized with icecold methanol (90%, v/v) for at least 20 min at -20° C. The cells were stained for expression of CD3 and pH[…].
On the technique in general: In flow cytometry, cells or beads pass a laser one at a time.

For the next series, the system named is U937 cells. Description: CTL generation and tumor lysis assays. Type of series: cell-based, human. The conditions noted are these: NSG mice, 50 mg/kg daily, irradiated U937 on days 0 and +7, vs vehicle; listed as AJI-100.

Protocol for U937 cells: NSG mice were transplanted with human PBMCs as described above, and treated with either AJI-100 (50 mg/kg daily) or vehicle control. Additionally, recipient mice received an inoculum of irradiated U937 cells (ATCC, 10^7/mouse) on days 0 and +7. Mice were euthanized between days +10 to +12, spleens were harvested, and human CD8^+ T-cells were isolated by magnetic bead separation. Fresh U937 target cells were labeled with Calcein-AM for 30 minutes, washed, and then cultured with the purified CD8^+ T-cells at varying effector to target ratios for 4 hours at 37° C. No additional drugs were added during this final culture. […] Percent lysis was calculated as follows: [(test fluorescence−spontaneous fluorescence)/(maximum fluorescence−spontaneous fluorescence)]×100.

Consider `NC(=O)c1ccc(Nc2ncc(F)c(Nc3ccccc3)n2)cc1` [bisanilinopyrimidine (II), 5-Fluoro-N4-phenyl-N2-[4-(4-carboxamide)phenyl]pyrimidine-2,4-diamine], for which the solubility result in “Solubility” is listed as “enhancing its solubility”. In series [1] (Homo sapiens, single agent added once on day 0, proliferation on day 5, DC:T-cell ratio 1:30, read-out: IC50, T-cell proliferation in alloMLR), the IC50 was determined as 200 nM. Further, the “suppression of T cells in alloMLRs” value in series [1] (single agent, nanomolar concentrations, vs DMSO) is “significant suppression”. Moreover, the “phosphorylation of histone 3 serine 10 (pH3 Ser10) in T-cells” value in series [2] is reported as “reducing the phosphorylation”. Also, the “in vivo generation of U937-specific CTL and killing of U937 targets” value in the series on U937 cells is listed as “did not inhibit CTL generation”.

The values are drawn from patent US11203576B2, “Aurora kinase and Janus kinase inhibitors for prevention of graft versus host disease” (H. LEE MOFFITT CANCER CENTER AND RESEARCH INSTITUTE, INC., priority 2016, dated 2021).
